Experimental data reported in patent US12428403B2, “N-(heterocyclyl and heterocyclylalkyl)-3-benzylpyridin-2-amine derivatives as SSTR4 agonists” (Takeda Pharmaceutical Company Limited, priority 2020, dated 2025).

How the values were obtained:
SSTR1 = SSTR1 (Homo sapiens, UniProt P30872); test: biochemical;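 further: competitive binding to membranes of CHO-K1 cells overexpressing SSTR1, incubated 60 min at room temperature, radioactivity read by scintillation counting after filtration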
Method: SSTR1 I-125 Somatostatin Competition Binding Assay for Selectivity Versus SSTR1
Membranes from CHO-K1 cells overexpressing SSTR1 are purchased from Perkin Elmer (catalog number ES-520-M400UA). Test compounds are suspended in DMSO and then diluted in assay buffer (25 mM HEPES pH 7.4, 10 mM MgCl2, 1 mM CaCl2, 0.5% BSA) plus 0.4 nM I-125 labeled somatostatin (Perkin Elmer catalog number NEX389). […] Then 10 μg of SSTR1 membranes in 50 μL assay buffer are added per well. The plate is incubated for 60 minutes at room temperature. […] The contents of the assay plate are transferred to filters with a TomTech harvester and washed 5 times with 20 mM HEPES, 100 mM NaCl. […] The scintillator sheets are melted to the filters using a heat block. The filters are then read in a MicroBeta scintillation counter. Binding Ki curves are generated using Activity Base for Screening Data Management and the results are reported as pIC50.

SSTR4 [1] = target: T1, SSTR4 (Homo sapiens, UniProt P31391); test: cell-based
T1 sequence (P31391 whole entry): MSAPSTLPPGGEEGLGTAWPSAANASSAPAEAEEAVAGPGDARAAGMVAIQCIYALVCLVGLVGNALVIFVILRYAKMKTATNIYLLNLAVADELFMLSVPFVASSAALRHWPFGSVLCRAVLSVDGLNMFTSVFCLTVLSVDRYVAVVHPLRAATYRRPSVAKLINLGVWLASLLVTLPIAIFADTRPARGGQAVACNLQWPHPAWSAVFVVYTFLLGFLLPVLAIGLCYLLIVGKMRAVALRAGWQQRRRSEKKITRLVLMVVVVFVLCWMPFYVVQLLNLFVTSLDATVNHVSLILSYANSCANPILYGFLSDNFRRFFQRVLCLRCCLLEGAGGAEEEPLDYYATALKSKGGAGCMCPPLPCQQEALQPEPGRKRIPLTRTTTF
Method: This cell-based assay measures the ability of compounds to inhibit forskolin stimulated cAMP in CHO-K1 cells overexpressing SSTR4. CHO-K1 cells overexpressing SSTR4 (CHO-SSTR4) are purchased from DiscoveRx (product code 95-0059C2). The CHO-SSTR4 cells are maintained in F12K media with 10% Fetal Bovine Serum (Hyclone), 1% Pen/Strep (Life Technologies), and 800 μg/mL G418 (Life Technologies). To perform the assay, 3000 cells are plated per well in white 384-well plate (Corning 3570) in 50 complete media and the cells are allowed to attach for 16 hours in a 37° C., 5% CO2 incubator. The next day, the culture media is removed from the cells and the cells are washed (added then removed) with Krebs Ringer Buffer (ZenBio, KRB-1000 mL). Test compounds are suspended in DMSO and diluted in stimulation buffer: Krebs Ringer Buffer plus 0.5% BSA (Roche), 300 μM IBMX (Sigma), and 350 nM forskolin (Sigma). The cells are incubated in 10 μL compound/stimulation buffer for 30 minutes at room temperature. Cellular cAMP levels are detected with a HTRF LANCE Ultra cAMP kit (Perkin Elmer, catalog number TRF0264).
The assay is performed in accordance with the manufacturer's instructions. Five μL of diluted Eu-W8044 labeled streptavidin (dilution: 1:50 in cAMP Detection Buffer) is added to each well. Then 5 μL of diluted biotin cAMP (dilution: 1:150 in cAMP Detection Buffer) is added to each well. The plates are covered and allowed to incubate for 60 minutes at room temperature on a shaker. HTRF (665 nm/615 nm) is read on a Perkin Elmer ENVISION plate reader. The pEC50 values are generated using Activity Base for Screening Data Management.

SSTR4 [2] = target: T1, SSTR4; test: SSTR4 I-125 somatostatin competition binding assay (CHO-K1 membranes); set-up: host or cells: CHO-K1; settings: competition with I-125 labeled somatostatin, membranes from CHO-K1 overexpressing SSTR4; read-out: SSTR4 Binding pIC50 (converted)
Text: SSTR4I-125 Somatostatin Competition Binding Assay
Membranes from CHO-K1 cells overexpressing SSTR4 are purchased from Perkin Elmer (catalog number ES-524-M400UA). […] The scintillator sheets are melted to filters using a heat block.
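Wherever EC50 is given: CHO-K1 cells overexpressing SSTR4, reduction of forskolin-driven cAMP after 30 min compound exposure at room temperature, cAMP read by HTRF LANCE Ultra kit.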

Sequence of SSTR1 (P30872 whole entry): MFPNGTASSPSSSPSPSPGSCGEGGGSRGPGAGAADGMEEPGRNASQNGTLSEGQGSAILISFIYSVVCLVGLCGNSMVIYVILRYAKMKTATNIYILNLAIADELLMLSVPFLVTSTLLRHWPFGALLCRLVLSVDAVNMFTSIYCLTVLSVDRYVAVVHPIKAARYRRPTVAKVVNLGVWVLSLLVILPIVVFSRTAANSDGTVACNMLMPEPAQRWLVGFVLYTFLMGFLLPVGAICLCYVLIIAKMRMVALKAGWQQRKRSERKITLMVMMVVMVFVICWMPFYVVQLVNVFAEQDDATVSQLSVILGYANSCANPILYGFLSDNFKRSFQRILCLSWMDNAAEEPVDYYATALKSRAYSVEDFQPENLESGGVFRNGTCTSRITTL

SMILES | IC50 (SSTR1) [nM] | EC50 (SSTR4 [1]) [nM] | IC50 (SSTR4 [2]) [nM]
CC(c1ccc(F)cc1)c1nccnc1NCCN1CCCC1 (stereo not drawn) [Example 119, 3-(1-(4-fluorophenyl)ethyl)-N-(2-(pyrrolidin-1-yl)ethyl)pyrazin-2-amine] | 12000 | 8.71 | 151
CC(c1ccc(F)cc1)c1nc(-c2ncco2)cnc1NCCN1CCCC1 (stereo not drawn) [Example 123, 3-(1-(4-fluorophenyl)ethyl)-5-(oxazol-2-yl)-N-(2-(pyrrolidin-1-yl)ethyl)pyrazin-2-amine] | 3310 | 20.9 | 123
CC(c1ccc(F)cc1)c1nc(-c2nccn2C)cnc1NCCN1CCCC1 (stereo not drawn) [Example 124, 3-(1-(4-fluorophenyl)ethyl)-5-(1-methyl-1H-imidazol-2-yl)-N-(2-(pyrrolidin-1-yl)ethyl)pyrazin-2-amine] | 3470 | 36.3 | 245
CC(c1ccc(F)cc1)c1nc(-c2nccs2)cnc1NCCN1CCCC1 (stereo not drawn) [Example 125, 3-(1-(4-fluorophenyl)ethyl)-N-(2-(pyrrolidin-1-yl)ethyl)-5-(thiazol-2-yl)pyrazin-2-amine] | 1230 | 42.7 | 38
Cc1cnc(-c2cnc(NCCN3CCCC3)c(C(C)c3ccc(F)cc3)n2)o1 (stereo not drawn) [Example 126, 3-(1-(4-fluorophenyl)ethyl)-5-(5-methyloxazol-2-yl)-N-(2-(pyrrolidin-1-yl)ethyl)pyrazin-2-amine] | 2630 | 29.5 | 110
Cc1cnc(-c2nc(C(C)c3ccc(F)cc3)c(NCCN3CCCC3)nc2C)o1 (stereo not drawn) [Example 129, 3-(1-(4-fluorophenyl)ethyl)-6-methyl-5-(5-methyloxazol-2-yl)-N-(2-(pyrrolidin-1-yl)ethyl)pyrazin-2-amine] | 2290 | 10 | 35.5
Cc1nnc(C(C)c2ccc(F)cc2)c(NCCN2CCC2)n1 (stereo not drawn) [Example 132, N-(2-(azetidin-1-yl)ethyl)-6-(1-(4-fluorophenyl)ethyl)-3-methyl-1,2,4-triazin-5-amine] | 47900 | 1.95 | 28.2
Fc1ccc(Cc2nnc(C3CC3)nc2NCCN2CCC2)cc1 [Example 138, N-(2-(azetidin-1-yl)ethyl)-3-cyclopropyl-6-(4-fluorobenzyl)-1,2,4-triazin-5-amine] | 5010 | 16.2 | 89.1
Cc1nnc(C(C)c2ccccc2)c(NCCN2CCC2)n1 (stereo not drawn) [Example 143, N-(2-(azetidin-1-yl)ethyl)-3-methyl-6-(1-phenylethyl)-1,2,4-triazin-5-amine] | 10000 | 4.27 | 49
Cc1cccc(Cc2nnc(C)nc2NCCN2CCC2)c1 [Example 148, N-(2-(azetidin-1-yl)ethyl)-3-methyl-6-(3-methylbenzyl)-1,2,4-triazin-5-amine] | 15100 | 10 | 42.7
